The term pIC50 denotes the IC50 on a negative log10 scale, so that one unit is a factor of ten. The low end stands for a large IC50, the high end for a small IC50.

The source of these data is the supplement of paper PMC12076712.

What all share (experiment): pIC50, kinobeads binding competition
Assay [1] addresses T1, NEK1 (UniProt Q96PY6).
T1 sequence (whole entry): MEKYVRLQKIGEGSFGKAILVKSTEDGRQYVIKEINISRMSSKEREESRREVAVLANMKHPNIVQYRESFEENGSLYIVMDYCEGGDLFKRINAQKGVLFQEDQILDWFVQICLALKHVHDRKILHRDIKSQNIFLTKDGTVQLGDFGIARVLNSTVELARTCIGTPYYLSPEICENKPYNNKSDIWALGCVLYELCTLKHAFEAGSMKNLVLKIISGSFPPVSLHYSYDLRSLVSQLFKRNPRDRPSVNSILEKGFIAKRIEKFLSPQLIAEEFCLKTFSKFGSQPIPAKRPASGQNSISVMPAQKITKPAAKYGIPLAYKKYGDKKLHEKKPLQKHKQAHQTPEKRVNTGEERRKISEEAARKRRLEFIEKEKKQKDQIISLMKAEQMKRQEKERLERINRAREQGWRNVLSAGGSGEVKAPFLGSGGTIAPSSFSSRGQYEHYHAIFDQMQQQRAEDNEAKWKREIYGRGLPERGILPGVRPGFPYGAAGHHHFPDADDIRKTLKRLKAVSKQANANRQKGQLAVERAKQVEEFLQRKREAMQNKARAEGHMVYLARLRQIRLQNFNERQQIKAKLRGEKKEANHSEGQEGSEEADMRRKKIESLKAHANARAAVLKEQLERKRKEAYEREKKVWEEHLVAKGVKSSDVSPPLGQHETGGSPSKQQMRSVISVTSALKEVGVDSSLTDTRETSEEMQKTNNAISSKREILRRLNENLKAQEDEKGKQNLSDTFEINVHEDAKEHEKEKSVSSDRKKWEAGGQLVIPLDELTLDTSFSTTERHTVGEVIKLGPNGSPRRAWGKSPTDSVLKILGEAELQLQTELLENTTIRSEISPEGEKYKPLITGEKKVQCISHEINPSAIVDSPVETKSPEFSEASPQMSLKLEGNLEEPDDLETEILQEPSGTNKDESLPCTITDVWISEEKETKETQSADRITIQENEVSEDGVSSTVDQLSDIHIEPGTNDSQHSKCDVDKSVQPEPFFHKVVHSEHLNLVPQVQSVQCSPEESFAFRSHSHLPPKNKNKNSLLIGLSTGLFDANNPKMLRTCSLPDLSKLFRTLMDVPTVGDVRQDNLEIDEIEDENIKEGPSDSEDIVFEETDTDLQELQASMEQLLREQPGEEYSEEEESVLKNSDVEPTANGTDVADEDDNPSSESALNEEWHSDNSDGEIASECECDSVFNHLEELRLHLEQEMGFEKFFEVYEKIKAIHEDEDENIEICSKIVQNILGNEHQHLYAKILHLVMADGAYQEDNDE
Put shortly:
(§1)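 Nine compound concentrations were tested, starting at 30 μM in 1:4 steps on live Jurkat cells (60 min, 37 °C, then lysis) or in 1:5 steps on Jurkat lysate or a 1:1:1:1 HEK293/K-562/HepG2/placenta lysate mix (60 min, 4 °C). Kinobeads-bound proteins were digested and quantified with TMT10 LC-MS/MS. pIC50 values are from logistic dose-response fits in the R drc package of fold changes relative to vehicle, from biological duplicates.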

Assay [2] deals with T2, UniProt Q8IW41.
T2 sequence (whole entry): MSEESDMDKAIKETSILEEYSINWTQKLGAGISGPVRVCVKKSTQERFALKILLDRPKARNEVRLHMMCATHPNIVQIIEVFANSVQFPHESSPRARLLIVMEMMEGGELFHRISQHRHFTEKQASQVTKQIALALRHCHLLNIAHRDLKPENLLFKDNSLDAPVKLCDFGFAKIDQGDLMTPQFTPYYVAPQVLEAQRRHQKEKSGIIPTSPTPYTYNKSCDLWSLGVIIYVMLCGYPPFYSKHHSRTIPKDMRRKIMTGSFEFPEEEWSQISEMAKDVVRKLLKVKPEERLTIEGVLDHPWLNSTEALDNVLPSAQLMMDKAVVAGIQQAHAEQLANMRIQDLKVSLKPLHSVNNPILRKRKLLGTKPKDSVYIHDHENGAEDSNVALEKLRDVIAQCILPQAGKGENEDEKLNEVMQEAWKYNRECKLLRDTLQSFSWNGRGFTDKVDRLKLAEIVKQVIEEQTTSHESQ
The essentials: as §1

Assay [3] concerns the target UniProt Q14289. Put shortly:
as §1

For assay [4], the target named is EPHA5 (UniProt P54756). The conditions noted are these: cell material: Lysate mix. Put shortly:
as §1

Assay [5] concerns the target CAMKK1 (UniProt Q8N5S9). Put shortly:
as §1

Assay [6] deals with UniProt P49840. Put shortly:
as §1

Assay [7] deals with UniProt Q8N4C8. The essentials:
as §1

Assay [8] concerns the target T3, TGFBR1 (UniProt P36897).
T3 sequence (whole entry): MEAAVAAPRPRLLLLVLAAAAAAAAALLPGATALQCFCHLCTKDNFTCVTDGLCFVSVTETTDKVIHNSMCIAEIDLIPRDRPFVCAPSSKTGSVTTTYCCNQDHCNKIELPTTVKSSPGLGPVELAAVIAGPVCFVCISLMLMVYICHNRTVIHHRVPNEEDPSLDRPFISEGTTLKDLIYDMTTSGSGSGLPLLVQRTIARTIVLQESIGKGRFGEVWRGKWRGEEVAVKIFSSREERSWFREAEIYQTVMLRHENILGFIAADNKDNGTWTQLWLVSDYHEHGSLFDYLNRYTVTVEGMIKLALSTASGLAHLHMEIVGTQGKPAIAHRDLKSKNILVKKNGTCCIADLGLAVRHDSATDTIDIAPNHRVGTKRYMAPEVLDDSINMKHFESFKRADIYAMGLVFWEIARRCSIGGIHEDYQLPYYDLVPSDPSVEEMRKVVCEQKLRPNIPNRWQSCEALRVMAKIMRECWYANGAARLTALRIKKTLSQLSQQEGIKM
The essentials: as §1

Molecules are shown by their SMILES. A value given as a limit tells only on which side of the number the result lay.

Chain of EPHA5 (P54756 whole entry): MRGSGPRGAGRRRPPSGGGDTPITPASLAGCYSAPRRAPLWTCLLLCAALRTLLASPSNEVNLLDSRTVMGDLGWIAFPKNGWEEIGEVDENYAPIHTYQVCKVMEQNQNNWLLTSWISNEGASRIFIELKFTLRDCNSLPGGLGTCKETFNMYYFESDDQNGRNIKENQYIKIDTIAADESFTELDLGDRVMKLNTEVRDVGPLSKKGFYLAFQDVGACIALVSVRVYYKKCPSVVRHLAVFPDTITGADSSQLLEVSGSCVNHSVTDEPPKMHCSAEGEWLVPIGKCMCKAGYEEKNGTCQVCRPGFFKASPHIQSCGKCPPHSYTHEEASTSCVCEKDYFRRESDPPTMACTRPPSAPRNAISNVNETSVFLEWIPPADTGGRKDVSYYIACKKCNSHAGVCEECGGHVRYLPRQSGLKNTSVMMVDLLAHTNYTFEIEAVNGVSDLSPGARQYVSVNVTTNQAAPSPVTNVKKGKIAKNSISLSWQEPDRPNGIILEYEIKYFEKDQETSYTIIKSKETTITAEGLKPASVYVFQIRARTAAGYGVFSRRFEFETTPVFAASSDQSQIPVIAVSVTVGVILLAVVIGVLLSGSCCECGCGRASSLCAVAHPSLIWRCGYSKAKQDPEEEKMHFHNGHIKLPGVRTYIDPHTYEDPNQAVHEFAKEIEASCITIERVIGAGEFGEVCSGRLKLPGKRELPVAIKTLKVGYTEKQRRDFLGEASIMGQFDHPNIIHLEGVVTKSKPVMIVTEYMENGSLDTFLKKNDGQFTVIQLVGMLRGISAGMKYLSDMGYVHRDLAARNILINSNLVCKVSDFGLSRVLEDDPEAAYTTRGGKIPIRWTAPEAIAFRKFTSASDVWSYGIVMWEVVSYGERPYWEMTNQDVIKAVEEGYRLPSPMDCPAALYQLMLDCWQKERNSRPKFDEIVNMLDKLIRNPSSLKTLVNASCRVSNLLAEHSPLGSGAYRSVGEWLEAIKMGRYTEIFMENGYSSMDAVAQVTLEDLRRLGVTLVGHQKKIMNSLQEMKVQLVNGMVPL
Chain of UniProt Q8N4C8 (Q8N4C8 whole entry, looked up): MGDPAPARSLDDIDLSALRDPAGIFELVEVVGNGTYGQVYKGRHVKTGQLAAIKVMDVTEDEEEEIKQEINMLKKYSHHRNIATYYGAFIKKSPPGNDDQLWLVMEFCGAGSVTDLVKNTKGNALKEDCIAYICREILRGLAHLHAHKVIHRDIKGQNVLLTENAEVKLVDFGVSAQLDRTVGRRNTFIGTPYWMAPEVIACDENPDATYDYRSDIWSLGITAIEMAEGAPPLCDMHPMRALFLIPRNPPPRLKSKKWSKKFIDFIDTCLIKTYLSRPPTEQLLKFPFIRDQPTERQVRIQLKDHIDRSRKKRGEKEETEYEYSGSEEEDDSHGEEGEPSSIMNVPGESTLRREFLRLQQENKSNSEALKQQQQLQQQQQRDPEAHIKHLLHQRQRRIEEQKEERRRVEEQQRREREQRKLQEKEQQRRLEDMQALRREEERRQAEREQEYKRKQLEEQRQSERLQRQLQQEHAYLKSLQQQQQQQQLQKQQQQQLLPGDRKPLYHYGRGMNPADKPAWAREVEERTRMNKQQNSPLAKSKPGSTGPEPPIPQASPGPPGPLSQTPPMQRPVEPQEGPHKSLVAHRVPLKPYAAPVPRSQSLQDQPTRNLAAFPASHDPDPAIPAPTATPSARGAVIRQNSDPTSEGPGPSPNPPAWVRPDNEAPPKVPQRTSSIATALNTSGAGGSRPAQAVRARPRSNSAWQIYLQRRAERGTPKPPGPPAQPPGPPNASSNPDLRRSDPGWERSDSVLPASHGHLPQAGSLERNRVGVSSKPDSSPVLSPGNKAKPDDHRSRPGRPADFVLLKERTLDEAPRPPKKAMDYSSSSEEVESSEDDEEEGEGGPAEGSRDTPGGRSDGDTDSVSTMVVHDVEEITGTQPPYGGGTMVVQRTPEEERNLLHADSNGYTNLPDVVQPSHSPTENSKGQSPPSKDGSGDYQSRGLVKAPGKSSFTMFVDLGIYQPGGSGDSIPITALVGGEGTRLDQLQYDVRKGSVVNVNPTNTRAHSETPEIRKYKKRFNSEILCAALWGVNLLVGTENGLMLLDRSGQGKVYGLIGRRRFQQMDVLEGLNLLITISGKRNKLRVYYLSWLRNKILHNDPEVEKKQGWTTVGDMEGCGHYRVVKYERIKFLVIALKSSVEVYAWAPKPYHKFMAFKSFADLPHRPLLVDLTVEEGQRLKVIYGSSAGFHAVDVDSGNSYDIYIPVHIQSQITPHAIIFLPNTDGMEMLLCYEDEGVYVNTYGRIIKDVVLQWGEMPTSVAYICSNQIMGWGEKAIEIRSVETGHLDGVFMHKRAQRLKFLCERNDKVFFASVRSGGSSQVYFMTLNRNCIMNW
Chain of UniProt P49840 (P49840 whole entry, looked up): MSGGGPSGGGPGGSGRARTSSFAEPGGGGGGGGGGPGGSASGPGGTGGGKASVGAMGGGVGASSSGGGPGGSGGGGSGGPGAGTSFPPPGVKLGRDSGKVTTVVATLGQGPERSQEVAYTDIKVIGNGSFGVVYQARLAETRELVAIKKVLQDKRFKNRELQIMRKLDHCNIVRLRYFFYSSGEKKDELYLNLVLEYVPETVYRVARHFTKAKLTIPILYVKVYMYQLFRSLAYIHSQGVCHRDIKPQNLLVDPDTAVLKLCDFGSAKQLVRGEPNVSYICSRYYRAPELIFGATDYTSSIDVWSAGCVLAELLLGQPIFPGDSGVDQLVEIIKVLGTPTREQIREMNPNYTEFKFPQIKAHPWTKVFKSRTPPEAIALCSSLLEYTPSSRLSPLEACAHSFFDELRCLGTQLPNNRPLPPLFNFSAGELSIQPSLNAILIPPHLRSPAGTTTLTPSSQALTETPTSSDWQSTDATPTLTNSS
Chain of UniProt Q14289 (Q14289 whole entry, looked up): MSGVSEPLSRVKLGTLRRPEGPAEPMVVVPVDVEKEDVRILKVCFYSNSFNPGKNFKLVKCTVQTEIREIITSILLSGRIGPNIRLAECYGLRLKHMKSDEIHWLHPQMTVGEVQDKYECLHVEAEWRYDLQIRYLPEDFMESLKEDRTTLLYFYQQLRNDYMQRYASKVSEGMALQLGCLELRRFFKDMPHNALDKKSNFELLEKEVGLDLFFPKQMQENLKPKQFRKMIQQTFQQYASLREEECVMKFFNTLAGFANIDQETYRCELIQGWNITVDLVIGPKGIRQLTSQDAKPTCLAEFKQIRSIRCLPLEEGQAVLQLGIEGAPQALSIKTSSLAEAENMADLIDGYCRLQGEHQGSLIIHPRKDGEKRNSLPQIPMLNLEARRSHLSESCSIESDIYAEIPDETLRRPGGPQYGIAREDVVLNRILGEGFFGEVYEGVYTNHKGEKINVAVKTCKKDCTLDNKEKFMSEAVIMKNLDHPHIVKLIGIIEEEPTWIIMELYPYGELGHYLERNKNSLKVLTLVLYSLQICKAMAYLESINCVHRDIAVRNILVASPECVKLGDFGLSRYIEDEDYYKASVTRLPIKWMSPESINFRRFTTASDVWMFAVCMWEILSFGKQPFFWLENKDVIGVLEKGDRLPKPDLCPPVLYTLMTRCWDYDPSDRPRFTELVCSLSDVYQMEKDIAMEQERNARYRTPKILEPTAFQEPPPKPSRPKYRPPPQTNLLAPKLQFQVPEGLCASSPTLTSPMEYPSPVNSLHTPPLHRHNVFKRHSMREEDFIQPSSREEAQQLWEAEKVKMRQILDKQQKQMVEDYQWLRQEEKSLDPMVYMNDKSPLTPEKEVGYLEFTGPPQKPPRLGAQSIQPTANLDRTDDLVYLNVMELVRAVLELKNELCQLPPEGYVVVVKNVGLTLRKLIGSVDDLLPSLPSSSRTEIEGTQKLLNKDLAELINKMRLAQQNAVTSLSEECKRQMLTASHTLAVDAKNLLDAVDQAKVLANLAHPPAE
Chain of CAMKK1 (Q8N5S9 whole entry, looked up): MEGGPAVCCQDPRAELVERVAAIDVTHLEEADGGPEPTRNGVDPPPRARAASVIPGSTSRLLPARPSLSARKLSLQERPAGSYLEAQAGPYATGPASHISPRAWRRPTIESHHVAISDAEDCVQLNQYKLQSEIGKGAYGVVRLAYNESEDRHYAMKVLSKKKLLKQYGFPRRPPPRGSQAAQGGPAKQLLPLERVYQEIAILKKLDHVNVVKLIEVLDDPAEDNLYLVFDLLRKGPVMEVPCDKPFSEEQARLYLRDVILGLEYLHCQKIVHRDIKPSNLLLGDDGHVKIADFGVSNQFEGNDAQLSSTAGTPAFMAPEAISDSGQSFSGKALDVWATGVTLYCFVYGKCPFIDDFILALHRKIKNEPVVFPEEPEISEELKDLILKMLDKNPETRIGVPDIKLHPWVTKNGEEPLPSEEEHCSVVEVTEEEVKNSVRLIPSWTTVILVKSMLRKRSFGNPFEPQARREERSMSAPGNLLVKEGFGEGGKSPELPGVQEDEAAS

Regarding `O=C(NCCNC(=O)c1cc(Nc2cc(C3CC3)[nH]n2)nc(N2CCN(Cc3ccc(S(=O)(=O)F)cc3)CC2)n1)OC1CC/C=C/CCC1` (centres undefined), the pIC50 in assay [1] (cell material: Jurkat cells) is 5.43; in assay [1] (cell material: Jurkat lysate), less than 4.52; in assay [1] (cell material: Lysate mix), less than 4.52; in assay [2] (cell material: Jurkat cells), less than 4.52; in assay [2] (cell material: Jurkat lysate), less than 4.52; in assay [2] (cell material: Lysate mix) it was less than 4.52. Further, the pIC50 was 4.98 in assay [3] (cell material: Jurkat cells); less than 4.52 in assay [3] (cell material: Jurkat lysate); less than 4.52 in assay [3] (cell material: Lysate mix); less than 4.52 in assay [4]; 6.77 in assay [5] (cell material: Jurkat cells); 6.72 in assay [5] (cell material: Jurkat lysate). For the same compound, the pIC50 was 6.42 in assay [5] (cell material: Lysate mix); less than 4.52 in assay [6] (cell material: Jurkat cells); less than 4.52 in assay [6] (cell material: Jurkat lysate); less than 4.52 in assay [6] (cell material: Lysate mix); 5.12 in assay [7] (cell material: Jurkat cells); less than 4.52 in assay [7] (cell material: Jurkat lysate). Also, the pIC50 in assay [7] (cell material: Lysate mix) was less than 4.52; in assay [8] (cell material: Jurkat cells), 4.81; in assay [8] (cell material: Jurkat lysate), less than 4.52; in assay [8] (cell material: Lysate mix), less than 4.52.

Turning to `Cc1cc(Nc2cc(C(=O)NCCNC(=O)OC3CC/C=C/CCC3)nc(N3CCN(Cc4ccc(S(=O)(=O)F)cc4)CC3)n2)n[nH]1` (centres undefined), the pIC50 in assay [1] (cell material: Lysate mix) was less than 4.52; in assay [2] (cell material: Lysate mix) it was less than 4.52; in assay [3] (cell material: Lysate mix), less than 4.52; in assay [4] it was less than 4.52; in assay [5] (cell material: Lysate mix), 5.96; in assay [6] (cell material: Lysate mix), less than 4.52. Besides, the pIC50 in assay [7] (cell material: Lysate mix) and in assay [8] (cell material: Lysate mix) was less than 4.52 throughout.

For the compound `CCNC(=O)c1cc(Nc2cc(C)[nH]n2)nc(N2CCN(Cc3ccc(S(=O)(=O)F)cc3)CC2)n1`, the pIC50 was less than 4.52 in assay [1] (cell material: Lysate mix); less than 4.52 in assay [2] (cell material: Lysate mix); less than 4.52 in assay [3] (cell material: Lysate mix); less than 4.52 in assay [4]; 5.97 in assay [5] (cell material: Lysate mix); less than 4.52 in assay [6] (cell material: Lysate mix). Besides, the pIC50 in assay [7] (cell material: Lysate mix) was less than 4.52; in assay [8] (cell material: Lysate mix) it was 4.78.

In the case of `C#CCNC(=O)c1cc(Nc2cc(C3CC3)[nH]n2)nc(N2CCN(Cc3ccc(S(=O)(=O)F)cc3)CC2)n1`, the pIC50 in assay [1] (cell material: Jurkat cells) is 5.94; in assay [1] (cell material: Jurkat lysate) it was less than 4.52; in assay [2] (cell material: Jurkat lysate), less than 4.52; in assay [2] (cell material: Lysate mix), less than 4.52; in assay [3] (cell material: Jurkat cells) it was 5.98; in assay [3] (cell material: Jurkat lysate) it was less than 4.52. Also, the pIC50 in assay [3] (cell material: Lysate mix) was less than 4.52; in assay [4] it was less than 4.52; in assay [5] (cell material: Jurkat cells) it was 6.26; in assay [5] (cell material: Jurkat lysate) it was 6.86; in assay [5] (cell material: Lysate mix), 7.04; in assay [6] (cell material: Jurkat cells), 5.04. For the same compound, the pIC50 was less than 4.52 in assay [6] (cell material: Jurkat lysate); less than 4.52 in assay [6] (cell material: Lysate mix); 5.72 in assay [7] (cell material: Jurkat cells); less than 4.52 in assay [7] (cell material: Jurkat lysate); less than 4.52 in assay [7] (cell material: Lysate mix); 5.75 in assay [8] (cell material: Jurkat cells). Moreover, the pIC50 was determined as 4.84 in assay [8] (cell material: Jurkat lysate) and 5.46 in assay [8] (cell material: Lysate mix).

Take `C#CCNC(=O)c1cc(Nc2cc(C)[nH]n2)nc(N2CCN(Cc3ccc(S(=O)(=O)F)cc3)CC2)n1`: the pIC50 in assay [1] (cell material: Lysate mix) was less than 4.52; in assay [2] (cell material: Lysate mix) it was less than 4.52; in assay [3] (cell material: Lysate mix), less than 4.52; in assay [4] it was less than 4.52; in assay [5] (cell material: Lysate mix), 5.98; in assay [6] (cell material: Lysate mix) it was less than 4.52. The values for the pIC50 in assay [7] (cell material: Lysate mix) and in assay [8] (cell material: Lysate mix) were less than 4.52 and 4.71, respectively.

Turning to `CCNC(=O)c1cc(Nc2cc(C3CC3)[nH]n2)nc(N2CCN(Cc3ccc(S(=O)(=O)F)cc3)CC2)n1`, the pIC50 in assay [1] (cell material: Lysate mix) was 4.86; in assay [2] (cell material: Lysate mix), less than 4.52; in assay [3] (cell material: Lysate mix), less than 4.52; in assay [4] it was less than 4.52; in assay [5] (cell material: Lysate mix), 6.68; in assay [6] (cell material: Lysate mix), less than 4.52. The negative-log IC50 (pIC50) is less than 4.52 in assay [7] (cell material: Lysate mix) and 5.41 in assay [8] (cell material: Lysate mix).
